Experimental data taken from the kinase profiling compilation of Christmann-Franck et al. (2016).

Legend:
Test in all cases: radiometric filter-binding kinase assay, Kinase HotSpot
Details in all cases: compound 0.5 µM; ATP 10 µM
[1] = target: AKT1 (human) (UniProt P31749)
[2] = target: SRPK3 (human) (UniProt Q9UPE1)
[3] = target: FLT3 (human) (UniProt P36888)
[4] = target: CDK9 CCNT1 (human) (UniProt P50750+O60563)
[5] = target: CLK4 (human) (UniProt Q9HAZ1)
[6] = target: MAPK9 (human) (UniProt P45984)
[7] = target: NUAK1 (human) (UniProt O60285)
[8] = target: KIT (human) (UniProt P10721)
[9] = target: NLK (human) (UniProt Q9UBE8)
[10] = target: MAPKAPK5 (human) (UniProt Q8IW41)
[11] = target: FLT1 (human) (UniProt P17948)
[12] = target: ROCK2 (human) (UniProt O75116)
[13] = target: ABL2 (human) (UniProt P42684)
[14] = target: MARK2 (human) (UniProt Q7KZI7)
[15] = target: PIM1 (human) (UniProt P11309)
[16] = target: TNK2 (human) (UniProt Q07912)
[17] = target: AURKB (human) (UniProt Q96GD4)
[18] = target: GRK5 (human) (UniProt P34947)
[19] = target: CDK2 CCNE1 (human) (UniProt P24941+P24864)
[20] = target: MERTK (human) (UniProt Q12866)
[21] = target: BRSK2 (human) (UniProt Q8IWQ3)
[22] = target: EPHA2 (human) (UniProt P29317)
[23] = target: HIPK3 (human) (UniProt Q9H422)
[24] = target: MYLK (human) (UniProt Q15746)
[25] = target: CSNK1G3 (human) (UniProt Q9Y6M4)
[26] = target: STK24 (human) (UniProt Q9Y6E0)
[27] = target: KDR (human) (UniProt P35968)
[28] = target: HIPK4 (human) (UniProt Q8NE63)
[29] = target: CDK1 CCNA2 (human) (UniProt P06493+P20248)
[30] = target: EPHB1 (human) (UniProt P54762)
[31] = target: CSNK2A2 (human) (UniProt P19784)
[32] = target: ACVRL1 (human) (UniProt P37023)
[33] = target: CSNK1A1 (human) (UniProt P48729)
[34] = target: PRKCG (human) (UniProt P05129)
[35] = target: PRKACA (human) (UniProt P17612)
[36] = target: PRKCB2 (human) (UniProt P05771)
[37] = target: CSNK1E (human) (UniProt P49674)
[38] = target: STK4 (human) (UniProt Q13043)
[39] = target: GRK7 (human) (UniProt Q8WTQ7)
[40] = target: NEK2 (human) (UniProt P51955)
[41] = target: NTRK3 (human) (UniProt Q16288)
[42] = target: WNK3 (human) (UniProt Q9BYP7)

Chain of EPHB1 (human) (P54762 whole entry, looked up): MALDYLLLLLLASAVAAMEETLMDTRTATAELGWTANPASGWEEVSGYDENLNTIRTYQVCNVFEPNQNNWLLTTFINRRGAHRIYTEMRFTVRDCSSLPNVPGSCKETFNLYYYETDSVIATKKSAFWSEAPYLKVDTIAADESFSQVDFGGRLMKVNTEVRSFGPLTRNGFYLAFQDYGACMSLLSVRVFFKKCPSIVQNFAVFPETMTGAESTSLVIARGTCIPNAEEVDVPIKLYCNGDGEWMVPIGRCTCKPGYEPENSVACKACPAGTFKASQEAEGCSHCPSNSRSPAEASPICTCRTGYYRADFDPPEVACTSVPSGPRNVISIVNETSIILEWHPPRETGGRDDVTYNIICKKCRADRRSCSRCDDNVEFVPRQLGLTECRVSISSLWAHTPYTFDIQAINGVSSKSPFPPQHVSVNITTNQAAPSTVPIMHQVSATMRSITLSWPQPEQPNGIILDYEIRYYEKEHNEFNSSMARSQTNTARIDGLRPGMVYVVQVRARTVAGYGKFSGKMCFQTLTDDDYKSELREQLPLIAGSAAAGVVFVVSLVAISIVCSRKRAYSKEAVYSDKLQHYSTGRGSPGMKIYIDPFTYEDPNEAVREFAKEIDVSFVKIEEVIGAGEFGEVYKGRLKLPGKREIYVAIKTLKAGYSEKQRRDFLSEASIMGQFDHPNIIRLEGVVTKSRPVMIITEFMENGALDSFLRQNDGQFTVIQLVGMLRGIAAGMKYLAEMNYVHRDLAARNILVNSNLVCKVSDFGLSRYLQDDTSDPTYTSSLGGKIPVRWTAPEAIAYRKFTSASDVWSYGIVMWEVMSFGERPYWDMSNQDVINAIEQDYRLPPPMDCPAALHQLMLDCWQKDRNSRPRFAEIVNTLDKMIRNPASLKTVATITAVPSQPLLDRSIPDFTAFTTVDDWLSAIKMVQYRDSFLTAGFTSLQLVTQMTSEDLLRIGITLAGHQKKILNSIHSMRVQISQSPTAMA
Chain of STK4 (human) (Q13043 whole entry, looked up): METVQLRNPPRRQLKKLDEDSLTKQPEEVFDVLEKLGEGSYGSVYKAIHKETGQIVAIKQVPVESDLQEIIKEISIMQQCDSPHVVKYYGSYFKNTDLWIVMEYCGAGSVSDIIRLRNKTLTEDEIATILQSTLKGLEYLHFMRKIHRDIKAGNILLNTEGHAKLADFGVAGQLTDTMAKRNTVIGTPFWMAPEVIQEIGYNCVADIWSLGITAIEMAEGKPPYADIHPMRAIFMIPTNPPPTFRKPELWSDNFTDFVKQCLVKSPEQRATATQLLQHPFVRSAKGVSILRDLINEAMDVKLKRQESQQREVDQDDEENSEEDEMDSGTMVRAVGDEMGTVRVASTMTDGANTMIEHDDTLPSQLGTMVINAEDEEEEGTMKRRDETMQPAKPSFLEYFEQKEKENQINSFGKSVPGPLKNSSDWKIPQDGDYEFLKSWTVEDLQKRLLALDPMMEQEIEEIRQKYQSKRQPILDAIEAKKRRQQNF
Chain of ACVRL1 (human) (P37023 whole entry, looked up): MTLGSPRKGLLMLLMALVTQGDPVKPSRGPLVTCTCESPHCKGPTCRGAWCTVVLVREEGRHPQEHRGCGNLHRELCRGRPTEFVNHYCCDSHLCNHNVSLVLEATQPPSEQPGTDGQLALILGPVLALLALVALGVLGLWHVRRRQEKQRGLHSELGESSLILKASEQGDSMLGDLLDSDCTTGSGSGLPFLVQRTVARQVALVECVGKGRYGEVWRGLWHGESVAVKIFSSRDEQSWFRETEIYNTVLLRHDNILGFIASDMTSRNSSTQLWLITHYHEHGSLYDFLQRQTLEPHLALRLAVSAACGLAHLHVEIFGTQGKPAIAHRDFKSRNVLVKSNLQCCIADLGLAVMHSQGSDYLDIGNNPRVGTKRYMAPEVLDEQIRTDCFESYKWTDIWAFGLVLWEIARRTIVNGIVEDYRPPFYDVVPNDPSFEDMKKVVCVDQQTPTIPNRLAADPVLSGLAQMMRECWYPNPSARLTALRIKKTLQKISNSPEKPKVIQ
Chain of ROCK2 (human) (O75116 whole entry, looked up): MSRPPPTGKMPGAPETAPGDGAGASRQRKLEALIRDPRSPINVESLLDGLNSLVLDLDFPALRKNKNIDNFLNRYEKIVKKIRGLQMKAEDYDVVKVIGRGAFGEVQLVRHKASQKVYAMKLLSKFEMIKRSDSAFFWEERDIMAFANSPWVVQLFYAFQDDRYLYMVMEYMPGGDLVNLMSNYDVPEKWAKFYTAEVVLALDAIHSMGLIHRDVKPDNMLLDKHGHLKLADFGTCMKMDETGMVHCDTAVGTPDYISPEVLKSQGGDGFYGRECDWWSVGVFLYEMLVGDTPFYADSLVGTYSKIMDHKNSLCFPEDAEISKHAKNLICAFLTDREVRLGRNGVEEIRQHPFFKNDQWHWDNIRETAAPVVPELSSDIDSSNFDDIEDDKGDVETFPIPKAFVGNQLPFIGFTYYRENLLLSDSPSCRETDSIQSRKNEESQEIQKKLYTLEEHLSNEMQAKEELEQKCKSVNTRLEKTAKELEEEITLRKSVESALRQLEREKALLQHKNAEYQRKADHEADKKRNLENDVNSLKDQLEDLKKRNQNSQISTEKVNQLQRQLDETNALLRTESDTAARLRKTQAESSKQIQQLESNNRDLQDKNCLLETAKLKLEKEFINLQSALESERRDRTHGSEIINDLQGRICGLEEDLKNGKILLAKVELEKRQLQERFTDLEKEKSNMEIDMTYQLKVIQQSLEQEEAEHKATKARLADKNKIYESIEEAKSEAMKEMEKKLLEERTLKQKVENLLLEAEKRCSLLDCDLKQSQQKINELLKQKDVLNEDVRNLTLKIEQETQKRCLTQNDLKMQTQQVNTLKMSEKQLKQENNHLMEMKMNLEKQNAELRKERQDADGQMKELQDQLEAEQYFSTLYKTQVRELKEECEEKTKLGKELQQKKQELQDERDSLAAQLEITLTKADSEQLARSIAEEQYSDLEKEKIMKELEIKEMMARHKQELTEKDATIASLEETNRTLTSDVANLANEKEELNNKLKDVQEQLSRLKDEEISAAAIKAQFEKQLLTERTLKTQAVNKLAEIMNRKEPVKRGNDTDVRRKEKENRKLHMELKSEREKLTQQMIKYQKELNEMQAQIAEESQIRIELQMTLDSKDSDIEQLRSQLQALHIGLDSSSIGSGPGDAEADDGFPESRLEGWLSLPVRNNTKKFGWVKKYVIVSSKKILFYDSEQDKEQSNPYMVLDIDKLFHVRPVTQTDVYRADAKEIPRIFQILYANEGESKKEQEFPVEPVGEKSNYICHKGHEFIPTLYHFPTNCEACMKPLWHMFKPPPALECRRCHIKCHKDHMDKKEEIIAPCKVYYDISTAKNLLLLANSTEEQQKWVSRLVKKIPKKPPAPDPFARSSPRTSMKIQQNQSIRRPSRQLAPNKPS
Chain of HIPK4 (human) (Q8NE63 whole entry, looked up): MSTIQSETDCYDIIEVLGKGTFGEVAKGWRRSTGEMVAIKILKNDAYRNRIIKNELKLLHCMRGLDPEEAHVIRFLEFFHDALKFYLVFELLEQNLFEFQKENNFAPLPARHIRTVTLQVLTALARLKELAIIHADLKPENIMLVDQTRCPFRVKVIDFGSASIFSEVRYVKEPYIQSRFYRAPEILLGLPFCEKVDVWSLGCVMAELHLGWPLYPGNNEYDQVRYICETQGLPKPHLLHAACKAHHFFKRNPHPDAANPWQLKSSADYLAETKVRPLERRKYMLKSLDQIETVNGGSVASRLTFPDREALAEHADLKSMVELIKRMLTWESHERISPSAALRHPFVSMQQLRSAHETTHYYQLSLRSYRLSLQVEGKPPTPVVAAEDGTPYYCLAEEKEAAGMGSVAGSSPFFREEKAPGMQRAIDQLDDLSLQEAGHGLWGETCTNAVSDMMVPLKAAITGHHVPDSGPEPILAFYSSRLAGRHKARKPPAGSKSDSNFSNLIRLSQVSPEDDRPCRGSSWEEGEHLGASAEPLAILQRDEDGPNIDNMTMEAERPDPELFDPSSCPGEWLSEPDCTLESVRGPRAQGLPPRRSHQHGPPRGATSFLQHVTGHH
Chain of MARK2 (human) (Q7KZI7 whole entry, looked up): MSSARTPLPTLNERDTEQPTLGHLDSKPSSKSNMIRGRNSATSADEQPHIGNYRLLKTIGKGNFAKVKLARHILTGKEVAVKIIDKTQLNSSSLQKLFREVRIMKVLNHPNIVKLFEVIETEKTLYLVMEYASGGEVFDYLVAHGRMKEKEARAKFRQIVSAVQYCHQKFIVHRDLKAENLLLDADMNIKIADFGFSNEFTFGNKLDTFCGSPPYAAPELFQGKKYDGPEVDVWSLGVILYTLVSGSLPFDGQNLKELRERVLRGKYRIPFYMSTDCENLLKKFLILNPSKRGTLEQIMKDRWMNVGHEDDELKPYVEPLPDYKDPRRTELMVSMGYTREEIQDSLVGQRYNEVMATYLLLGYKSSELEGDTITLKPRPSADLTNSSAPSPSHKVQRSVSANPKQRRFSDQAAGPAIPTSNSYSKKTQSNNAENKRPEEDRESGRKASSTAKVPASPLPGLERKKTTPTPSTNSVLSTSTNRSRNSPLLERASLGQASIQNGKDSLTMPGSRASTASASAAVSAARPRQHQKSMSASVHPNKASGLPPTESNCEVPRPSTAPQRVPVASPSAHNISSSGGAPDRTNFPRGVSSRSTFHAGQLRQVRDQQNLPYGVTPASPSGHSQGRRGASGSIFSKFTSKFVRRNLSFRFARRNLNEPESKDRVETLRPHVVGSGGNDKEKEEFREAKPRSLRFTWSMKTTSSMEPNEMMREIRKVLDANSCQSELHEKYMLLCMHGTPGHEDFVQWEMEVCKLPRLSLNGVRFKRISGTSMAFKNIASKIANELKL

In the case of `Nc1cccc(-c2cc3c(Oc4cccc(O)c4)ncnc3[nH]2)c1`, the residual activity [1] is reported as 92.5%, the residual activity [2] is reported as 101% and the residual activity [3] is reported as 30.7%. For the same compound, the residual activity [4] was 63.2%, the residual activity [5] was 104% and the residual activity [6] was 111%. It also gave a residual activity [7] of 37%, a residual activity [8] of 35.1% and a residual activity [9] of 87.7%. It also gave a residual activity [10] of 125%, a residual activity [11] of 8.56% and a residual activity [12] of 94.5%. It also gave a residual activity [13] of 1.4%, a residual activity [14] of 79% and a residual activity [15] of 85.9%. It also gave a residual activity [16] of 19.6%, a residual activity [17] of 71.9% and a residual activity [18] of 128%. The residual activity [19] was 90%, the residual activity [20] was 63.8% and the residual activity [21] was 86.9%. The residual activity [22] was 48.2%, the residual activity [23] was 94% and the residual activity [24] was 81.7%. It also gave a residual activity [25] of 92.6%, a residual activity [26] of 64.2% and a residual activity [27] of 6.7%. The residual activity [28] was 103%, the residual activity [29] was 99.3% and the residual activity [30] was 40%. It also gave a residual activity [31] of 96.5%, a residual activity [32] of 70.3% and a residual activity [33] of 61.8%. The residual activity [34] was 88.1%, the residual activity [35] was 92.3% and the residual activity [36] was 97.5%. The residual activity [37] was 92.9%, the residual activity [38] was 94.4% and the residual activity [39] was 102%. The residual activity [40] was 98%, the residual activity [41] was 63.3% and the residual activity [42] was 88.5%.
`CCN(CC)C(=O)c1ccc(Nc2nc(OCC3CCCCC3)c3nc[nH]c3n2)cc1` was tested, and the residual activity [1] was 98.8%, the residual activity [2] was 68.1% and the residual activity [3] was 10.3%. For the same compound, the residual activity [4] was 88.8%, the residual activity [5] was 44.2% and the residual activity [6] was 60.8%. It also gave a residual activity [7] of 3.67%, a residual activity [8] of 40.7% and a residual activity [9] of 94.5%. The residual activity [10] was 87.8%, the residual activity [11] was 84% and the residual activity [12] was 39.8%. It also gave a residual activity [13] of 67.8%, a residual activity [14] of 75.3% and a residual activity [15] of 95.6%. The residual activity [16] was 21.4%, the residual activity [17] was 30.1% and the residual activity [18] was 98.8%. It also gave a residual activity [19] of 76.5%, a residual activity [20] of 71.6% and a residual activity [21] of 82.5%. For the same compound, the residual activity [22] was 90.6%, the residual activity [23] was 96.4% and the residual activity [24] was 91.6%. It also gave a residual activity [25] of 61.7%, a residual activity [26] of 84.5% and a residual activity [27] of 76.5%. It also gave a residual activity [28] of 96.5%, a residual activity [29] of 95.2% and a residual activity [30] of 75.4%. It also gave a residual activity [31] of 90.9%, a residual activity [32] of 106% and a residual activity [33] of 104%. It also gave a residual activity [34] of 94.5%, a residual activity [35] of 93.7% and a residual activity [36] of 95%. The residual activity [37] was 95.6%, the residual activity [38] was 46.3% and the residual activity [39] was 103%. For the same compound, the residual activity [40] was 91.4%, the residual activity [41] was 32.3% and the residual activity [42] was 80.6%.
For `COc1ccc2c(c[n+](C)c3c4cc5c(cc4ccc23)OCO5)c1OC`, the residual activity [1] was 97.6%, the residual activity [2] was 96.1% and the residual activity [3] was 76.9%. For the same compound, the residual activity [4] was 96.4%, the residual activity [5] was 89.9% and the residual activity [6] was 102%. The residual activity [7] was 96.6%, the residual activity [8] was 68.8% and the residual activity [9] was 102%. For the same compound, the residual activity [10] was 83.5%, the residual activity [11] was 88.8% and the residual activity [12] was 92.5%. It also gave a residual activity [13] of 96.7%, a residual activity [14] of 95% and a residual activity [15] of 97%. It also gave a residual activity [16] of 101%, a residual activity [17] of 99.2% and a residual activity [18] of 110%. For the same compound, the residual activity [19] was 88.9%, the residual activity [20] was 90.8% and the residual activity [21] was 97%. The residual activity [22] was 97.4%, the residual activity [23] was 96.6% and the residual activity [24] was 100%. It also gave a residual activity [25] of 92.5%, a residual activity [26] of 84.2% and a residual activity [27] of 104%. The residual activity [28] was 95.9%, the residual activity [29] was 89.7% and the residual activity [30] was 90.4%. It also gave a residual activity [31] of 89.7%, a residual activity [32] of 99.2% and a residual activity [33] of 103%. It also gave a residual activity [34] of 87.2%, a residual activity [35] of 100% and a residual activity [36] of 100%. The residual activity [37] was 90.7%, the residual activity [38] was 98.9% and the residual activity [39] was 101%. It also gave a residual activity [40] of 98.6%, a residual activity [41] of 95.2% and a residual activity [42] of 101%.
